Four substances from patent publication US10342867B2 (priority 2014, dated 2019) can be followed below.

For series [1] the following is noted: rabbit, in vivo.
The conditions of series [2]: rabbit, in vivo. The source holds these as a separate data set.
The conditions of series [3]: rabbit, in vivo. This is another data set of the same source.
The conditions of series [4]: rabbit, in vivo. This is another data set of the same source.
For series [5] the following is noted: rabbit, in vivo. The source holds these as a separate data set.

Turning to “Monosulphate heptadecylmaltose [M10-MONO]”, in series [1], the “Body temperature one day after the first immunization, Mean” value came out at 38.9 °C and the “Body temperature one day after the second immunization, Mean” value was 39.2 °C. Moreover, in series [2], the “Number of animals demonstrating a detectable adverse local reaction four weeks after the first immunization” value (“Number … after the first immunization” for short) is recorded as 0/6 and the “Number of animals demonstrating a detectable adverse local reaction one week after the second immunization” value (from here on “Number … after the second immunization”) is 0/6. For the same substance, in series [3], the “Increase in body temperature one day post immunization 1, mean” value is 0.5 °C; the “Increase in body temperature two days post immunization 1, mean” value amounted to 0.1 °C; the “increases in body temperature in comparison to the corresponding POLY counterpart” value is given as “lower increases”. In series [4], the “Body weight gain one week post immunization 1, mean” value stood at 35 g and the “Body weight gain two weeks post immunization 1, mean” value turned out to be 49 g. Moreover, in series [5], the “Reactogenicity 1 week post immunization 2, GMS” value stood at 1.34; the “Reactogenicity 1 week post immunization 2, antilog” value amounted to 22; the “Reactogenicity 4 weeks post immunization 1, GMS” value amounted to 1.26; the “Reactogenicity 4 weeks post immunization 1, antilog” value was 18.
For the substance “Monosulphate heptadodecylmaltose [M12-MONO]”, in series [1], the “Body temperature one day after the first immunization, Mean” value stood at 39.0 °C and the “Body temperature one day after the second immunization, Mean” value is 39.2 °C. Moreover, in series [2], the “Number … after the first immunization” value was 0/6 and the “Number … after the second immunization” value is listed as 0/6.
As to “Monosulphate tetradodecyl galactose [G12-MONO]”, in series [1], the “Body temperature one day after the first immunization, Mean” value was 39.1 °C and the “Body temperature one day after the second immunization, Mean” value was 39.3 °C. In series [2], the “Number … after the first immunization” value is reported as 1/6 (discoloration, loss and the “Number … after the second immunization” value is reported as 1/6 (granuloma).
Regarding “maltose decanoic acid polysulphate ester [M10-POLY]”, in series [3], the “Increase in body temperature one day post immunization 1, mean” value was 0.7 °C and the “Increase in body temperature two days post immunization 1, mean” value amounted to 0.5 °C. For the same substance, in series [4], the “Body weight gain one week post immunization 1, mean” value is reported as 38 g and the “Body weight gain two weeks post immunization 1, mean” value is reported as 53 g. For the same substance, in series [5], the “Reactogenicity 1 week post immunization 2, GMS” value was found to be 3.37; the “Reactogenicity 4 weeks post immunization 1, GMS” value is recorded as 1.73; the “Reactogenicity 4 weeks post immunization 1, antilog” value was 53.
